Data on two compounds can be found in patent US12161630B2, “Methods to control infection using new generation small molecule growth inhibitors” (priority 2017, dated 2024).

Values after ≈ are worked out from the molar mass of the structure shown.

For one test, the system named is Salmonella Braenderup. The test is described as follows: MIC and MBC dose-response, serotype Braenderup. The format is cell-based, Salmonella enterica. As to conditions: MIC identical to MBC.
In the next test the test system is Salmonella Enteritidis. The test is described as follows: MIC and MBC dose-response, serotype Enteritidis. As to conditions: MIC identical to MBC. The format is cell-based, Salmonella enterica. Here is the method:
(§1) An overnight Salmonella suspension was normalized at 0.05 OD600 (approximately 3.5×10^7 CFU/ml) with an adjusted M9 minimal broth medium (12.7 mM Na2HPO4 7H2O; 22 mM KH2PO4; 18.7 mM NH4Cl; 2 mM MgSO4; 0.1 mM CaCl2; 0.4% glucose; 0.05% casamino acids). 100 μL of the suspension plus 2 μl of SMs (200 μM) were transferred into each well of a sterile, non-treated, flat bottom 96-well plate. Bacteria alone (negative control, NC), 2% DMSO plus bacteria (DMSO control), 20 μg/ml chloramphenicol or 50 μg/ml kanamycin plus bacteria (positive controls, PC), and M9 medium only were used as control. Plates were incubated in a Sunrise™ Tecan kinetic microplate reader for 12 hrs at 37° C. and the optical density (OD) was measure at 600 nm as described above. Percentage of inhibition=(OD600 SM−OD600 NC)/(OD600 NC)×100. […] Cultures from wells showing no turbidimetric increase were transferred onto a XLT4 agar plate. Plates were incubated at 37° C. for 36 hrs.
(§2) Screens were performed as described in the primary screen. The lowest SM concentration with a static effect was considered as the minimal inhibitory concentration (MIC) and the lowest SM concentration with a cidal effect was considered as the minimal bactericidal concentration (MBC).

Test [1] has as its system S. typhimurium WT. Nature of the test: Antimicrobial resistance studies (single step and sequential passage). The format is cell-based, Salmonella enterica subsp. enterica serovar Typhimurium LT2. As for the experimental part: Antimicrobial resistance studies: Single step and sequential passage resistance assays were performed as described (9). The MIC of the selected five SMs against S. typhimurium WT was used as reference for lethal (2×MIC) and sub-lethal (0.75×MIC) doses.
The medium was allowed to solidify overnight in the dark at room temperature. The next day, 100 μl of S. typhimurium bacteria (approximately 10^9 CFU) was transferred onto the adjusted M9 agar containing 2×MIC of SMs. S. typhimurium WT growth in 2% DMSO, 20 μg/ml chloramphenicol, or 50 μg/ml kanamycin, and adjusted M9 medium only were used as controls. The plate was sealed with parafilm and incubated for 15 days in the dark at 37° C. After 15 days, 100 μl of LB broth was added to the wells of 24-well plate showing no colonies in order to resuspend the potential surviving bacteria and transferred into a 5 ml tube.
The plate was incubated in the dark at 37° C., 175 rpm for 12 hrs. After this first passage, the plate was centrifuged for seven min at 4500 rpm. Supernatant was replaced with a fresh adjusted M9 broth media amended with 0.75×MIC of the corresponding SM. This procedure was repeated fourteen times. Following the 15th passage, a dose-response assay was performed on the remaining alive S. typhimurium bacteria as describe previously.

In test [2] the test system is S. typhimurium WT. The test is described as follows: High-throughput primary screen for S. typhimurium growth inhibitors at 200 μM. Format: cell-based, Salmonella enterica subsp. enterica serovar Typhimurium LT2. As to conditions: adjusted M9 minimal broth, 12 hrs, 37° C., bactericidal = 100% growth inhibition and no growth on XLT4 agar, bacteriostatic = 100% growth inhibition but growth on XLT4 agar. As for the experimental part: Identification of S. typhimurium growth inhibitors: The 4182 small molecules (SMs) were screened at 200 μM against S. typhimurium WT using HTS assay in a 96-well plate format. An overnight Salmonella suspension was normalized at 0.05 OD600 (approximately 3.5×10^7 CFU/ml) with an adjusted M9 minimal broth medium (12.7 mM Na2HPO4 7H2O; 22 mM KH2PO4; 18.7 mM NH4Cl; 2 mM MgSO4; 0.1 mM CaCl2; 0.4% glucose; 0.05% casamino acids). 100 μL of the suspension plus 2 μl of SMs (200 μM) were transferred into each well of a sterile, non-treated, flat bottom 96-well plate. Bacteria alone (negative control, NC), 2% DMSO plus bacteria (DMSO control), 20 μg/ml chloramphenicol or 50 μg/ml kanamycin plus bacteria (positive controls, PC), and M9 medium only were used as control. Plates were incubated in a Sunrise™ Tecan kinetic microplate reader for 12 hrs at 37° C. and the optical density (OD) was measure at 600 nm as described above. Percentage of inhibition=[…]. SMs were identified as growth inhibitors if their inhibition value after incubation was above 20% (value representing the inhibition level monitored with the DMSO controls). Cultures from wells showing no turbidimetric increase were transferred onto a XLT4 agar plate. Plates were incubated at 37° C. for 36 hrs.

Another test relates to Salmonella Saint-Paul. Nature of the test: MIC and MBC dose-response, serotype Saint-Paul. Format: cell-based. As to conditions: MIC identical to MBC. Here is the method:
as §1, §2

The subject of a further test is Salmonella Albany. The test is described as follows: MIC and MBC dose-response, serotype Albany. Format: cell-based, Salmonella enterica. The settings on record: MIC identical to MBC. Here is the method: as §1, §2
For a further test, the system named is Salmonella Heidelberg. Nature of the test: MIC and MBC dose-response, serotype Heidelberg. Format: cell-based, Salmonella enterica. As to conditions: MIC identical to MBC. As for the experimental part:
as §1, §2

Test [3] has as its system S. typhimurium WT. The test is described as follows: MIC and MBC dose-response, serotype Typhimurium. Format: cell-based, Salmonella enterica subsp. enterica serovar Typhimurium LT2. The settings on record: Salmonella serotype Typhimurium; MIC identical to MBC. Here is the method:
as §1, §2

In the next test the test system is Salmonella Newport. The test is described as follows: MIC and MBC dose-response, serotype Newport. The format is cell-based, Salmonella enterica. As to conditions: MIC identical to MBC. As for the experimental part:
as §1, §2

In a further test the test system is Salmonella Javiana. Nature of the test: MIC and MBC dose-response, serotype Javiana. Format: cell-based, Salmonella enterica. The settings on record: MIC identical to MBC. As for the experimental part:
as §1, §2

The test system of the next test is Salmonella Anatum. Nature of the test: MIC and MBC dose-response, serotype Anatum. The settings on record: MIC identical to MBC. The format is cell-based, Salmonella enterica. As for the experimental part: as §1, §2
Another test has as its system Kan^R S. typhimurium. The test is described as follows: Preventive efficacy in S. typhimurium-infected G. mellonella larvae. The settings on record: 72 HPI; pretreated with 12.5 μg per larva 2 hrs before infection. The format is in vivo, Galleria mellonella. Here is the method:
FIGS. 4(A-B). Preventive antimicrobial efficacy of SM treatment in S. typhimurium-infected G. mellonella. Larva were first treated with 12.5 μg SMs per larva (50 mg/kg), incubated for 2 hrs at 37° C. in the dark, then infected with 10^4 CFU per larva, and further incubated at 37° C. in the dark for 72 hrs. FIG. 4A: G. mellonella larva survival rate. Survival rate was monitored every 12 hours for 72 hrs. Infected larva treated with chloramphenicol control (CK) had 100% survival. FIG. 4B: Bacterial quantification of Salmonella inside larvae following death of larva or, if alive, after 72 hours of incubation. Light black dot: larva still alive after 72 hrs post-inoculation (HPI); Black dot: larvae dead before 72 HPI.
Effect of the selected four SMs on S. typhimurium intracellular survival in G. mellonella larvae: Wax moths were selected as mentioned previously in the toxicity assay section. First, the virulence of both Kan^R and WT S. typhimurium strains in G. mellonella was assessed. Briefly, a S. typhimurium suspension normalized at approximately 10^6 CFU/ml in 10 mM MgSO4 was used as the inoculum. […] Survival rate was monitored every 12 hrs. The bacterial quantification was performed once the larvae were considered dead (dark pigmentation or no reaction to a mechanical stimulus) or after the 72 hrs of incubation. […]

In the case of `CN(CCO)CC(O)Cn1c2ccc(Br)cc2c2cc(Br)ccc21` (centres unmarked) [SM2, 1-(3,6-dibromo-9H-carbazol-9-yl)-3-[(2-hydroxyethyl)(methyl)amino]-2-propanol], the “MIC/MBC” value was determined as 200 µM (≈ 91.2 µg/mL) with Salmonella Braenderup; 200 µM (≈ 91.2 µg/mL) in the test on Salmonella Enteritidis; 200 µM (≈ 91.2 µg/mL) in the test with Salmonella Saint-Paul; 200 µM (≈ 91.2 µg/mL) against Salmonella Albany; 200 µM (≈ 91.2 µg/mL) against Salmonella Heidelberg; 100 µM (≈ 45.6 µg/mL) against S. typhimurium WT [3]. Besides, the “MIC/MBC” value against Salmonella Newport, against Salmonella Javiana and against Salmonella Anatum was 200 µM (≈ 91.2 µg/mL) each time. Further, the “resistance after repeated exposure at sub-lethal dose” value in the test on S. typhimurium WT [1] (0.75×MIC in liquid medium, 15 passages at 37° C.) is on record as “developed resistance mechanisms”. The “resistance after single exposure at a lethal dose” value in the test on S. typhimurium WT [1] (2×MIC in solid medium) is given as “developed resistance mechanisms”. In the test on S. typhimurium WT [1] (minimal growth condition, represents 4×MBC), the “SM concentration at which resistant bacteria were able to grow” value turned out to be 400 µM. For the same compound, the “Effect on S. Typhimurium at 200 μM” value with S. typhimurium WT [2] is “Bactericidal”.
For `O=C(N[C@H](CO)[C@H](O)c1ccc([N+](=O)[O-])cc1)C(Cl)Cl` [chloramphenicol], the “survival of infected larvae” value in the test on Kan^R S. typhimurium amounted to 100%.
